Source: US20260132125A1, “PESTICIDALLY ACTIVE FUSED BICYCLIC HETEROAROMATIC COMPOUNDS” (priority 2022, published 2026)

Tests used:
Assay type in all cases: in vivo
[1] = test system: Diabrotica balteata; test: Example B2: activity against Diabrotica balteata (corn root worm), maize sprouts; details: 96 h, L2 larvae, 4 days after infestation, read-out: effect in at least one of the two categories (mortality or growth inhibition)
Method in brief: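 Maize sprouts on agar were sprayed with aqueous test solutions made from 10′000 ppm DMSO stocks, dried, then infested with 6–10 L2 larvae per well. Mortality and growth inhibition were scored against untreated samples 4 days after infestation, at an application rate of 200 ppm.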

[2] = test system: Chilo suppressalis; test: Example B1: activity against Chilo suppressalis (striped rice stemborer), artificial diet; details: 144 h, 200 ppm, L2 larvae, 6 days after infestation, read-out: control (at least one of mortality, anti-feedant effect, growth inhibition)
Method in brief: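 First, artificial diet was treated with aqueous solutions prepared from 10'000 ppm DMSO stocks; second, after drying, L2 larvae (6-8/well) were added; third, effects were assessed at 6 days against untreated controls, counting control when any of three categories was higher.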

[3] = test system: Spodoptera littoralis; test: Example B6: activity against Spodoptera littoralis (Egyptian cotton leaf worm), cotton leaf discs; details: foliar, 72 h, 200 ppm, L1 larvae, 3 days after infestation, read-out: control (at least one of mortality, anti-feedant effect, growth inhibition)
Method in brief: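 Leaf discs on agar; spray, aqueous dilution of 10′000 ppm DMSO stock; dry; 5 L1 larvae/disc. Read at 3 d post-infestation: mortality, antifeedant, growth inhibition vs untreated. Control = ≥1 category above untreated.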

[4] = test system: Plutella xylostella; test: Example B5: activity against Plutella xylostella (diamond back moth), artificial diet, eggs; details: 192 h, 8 days after infestation, read-out: effect in at least one of the two categories (mortality or growth inhibition)
Method in brief: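 Artificial diet in 24-well plates was treated with aqueous dilutions of DMSO stocks, dried, then infested with Plutella eggs. Mortality and growth inhibition were scored against untreated samples 8 days after infestation; application rate 200 ppm.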

[5] = test system: Euschistus heros; test: Example B3: activity against Euschistus heros (neotropical brown stink bug), soybean leaves; details: 120 h, N2 nymphs, 5 days after infestation, read-out: effect in at least one of the two categories (mortality or growth inhibition)
Method: Soybean leaves on agar in 24-well microtiter plates were sprayed with aqueous test solutions prepared from 10′000 ppm DMSO stock solutions. After drying the leaves were infested with N2 nymphs. The samples were assessed for mortality and growth inhibition in comparison to untreated samples 5 days after infestation. The following compounds gave an effect of at least 80% in at least one of the two categories (mortality or growth inhibition) at an application rate of 200 ppm: […]

[6] = test system: Pseudoplusia includens; test: Example B9: Pseudoplusia includens (soybean looper), larvicide, feeding/contact, soybean plants; details: Chrysodeixis includens, 120 h; 50 ppm; L2 larvae; 5 days after infestation; read-out: effect in at least one of the two categories (mortality or growth inhibition)
Method: Soybean plants were treated in a spray chamber, cut off and placed into petri dishes containing wet filter paper. 1d after application leaves were infested with 5 L2 larvae and covered with a fabric filter and plastic lids. 5 days after infestation the samples were assessed for mortality and growth inhibition. The following compounds gave an effect of at least 80% in at least one of the two categories (mortality or growth inhibition) at an application rate of 50 ppm: […]

[7] = test system: Myzus persicae; test: Example B4: activity against Myzus persicae (green peach aphid), intrinsic activity; details: 120 h, test rate 12 ppm, 5 days after infestation
Method: Test compounds prepared from 10′000 ppm DMSO stock solutions were applied by pipette into 24-well microtiter plates and mixed with sucrose solution. The plates were closed with a stretched Parafilm. A plastic stencil with 24 holes was placed onto the plate and infested pea seedlings were placed directly on the Parafilm. The infested plate was closed with a gel blotting paper and another plastic stencil and then turned upside down. The samples were assessed for mortality 5 days after infestation.

CNC(=O)c1cnc(-n2ncnc2[C@H](C)Nc2ncnc3c(C(F)(F)F)cc(Cl)cc23)s1 [Compound P7, 2-[5-[(1S)-1-[[6-chloro-8-(trifluoromethyl)quinazolin-4-yl]amino]ethyl]-1,2,4-triazol-1-yl]-N-methyl-thiazole-5-carboxamide]
≥ 80%: percent effect (mortality or growth inhibition) at 200 ppm [1] | percent control (mortality, anti-feedant effect or growth inhibition) at 200 ppm [2] | percent control (mortality, anti-feedant effect or growth inhibition) at 200 ppm [3] | percent effect (mortality or growth inhibition) at 200 ppm [4] | percent effect (mortality or growth inhibition) at 200 ppm [5]

CNC(=O)c1cc(-n2ncnc2[C@H](C)N(C)c2ncnc3c(Cl)cc(C(F)(F)F)cc23)ncn1 [Compound P15, 6-[5-[(1S)-1-[[8-chloro-6-(trifluoromethyl)quinazolin-4-yl]-methyl-amino]ethyl]-1,2,4-triazol-1-yl]-N-methyl-pyrimidine-4-carboxamide]
≥ 80%: percent effect (mortality or growth inhibition) at 200 ppm [1] | percent control (mortality, anti-feedant effect or growth inhibition) at 200 ppm [2] | percent effect (mortality or growth inhibition) at 50 ppm [6] | percent control (mortality, anti-feedant effect or growth inhibition) at 200 ppm [3] | mortality at 12 ppm [7] | percent effect (mortality or growth inhibition) at 200 ppm [4] | percent effect (mortality or growth inhibition) at 200 ppm [5]

CNC(=O)c1cc(-n2ncnc2[C@H](C)Nc2ncnc3c(Cl)cc(C(F)(F)F)cc23)ncn1 [Compound P16, 6-[5-[(1S)-1-[[8-chloro-6-(trifluoromethyl)quinazolin-4-yl]amino]ethyl]-1,2,4-triazol-1-yl]-N-methyl-pyrimidine-4-carboxamide]
≥ 80%: percent effect (mortality or growth inhibition) at 200 ppm [1] | percent control (mortality, anti-feedant effect or growth inhibition) at 200 ppm [2] | percent effect (mortality or growth inhibition) at 50 ppm [6] | percent control (mortality, anti-feedant effect or growth inhibition) at 200 ppm [3] | mortality at 12 ppm [7] | percent effect (mortality or growth inhibition) at 200 ppm [4]

CNC(=O)c1cc(-n2ncnc2[C@H](C)N(C)c2ncnc3c(I)cc(Cl)cc23)ncn1 [Compound P33, 6-[5-[(1S)-1-[(6-chloro-8-iodo-quinazolin-4-yl)-methyl-amino]ethyl]-1,2,4-triazol-1-yl]-N-methyl-pyrimidine-4-carboxamide]
≥ 80%: percent effect (mortality or growth inhibition) at 200 ppm [1] | percent control (mortality, anti-feedant effect or growth inhibition) at 200 ppm [2] | percent effect (mortality or growth inhibition) at 50 ppm [6] | percent control (mortality, anti-feedant effect or growth inhibition) at 200 ppm [3] | mortality at 12 ppm [7] | percent effect (mortality or growth inhibition) at 200 ppm [4]

C[C@H](Nc1ncnc2c(Cl)cc(C(F)(F)F)cc12)c1ncnn1-c1ncc(C(N)=O)s1 [Compound P35, 2-[5-[(1S)-1-[[8-chloro-6-(trifluoromethyl)quinazolin-4-yl]amino]ethyl]-1,2,4-triazol-1-yl]thiazole-5-carboxamide]
≥ 80%: percent effect (mortality or growth inhibition) at 200 ppm [1] | percent control (mortality, anti-feedant effect or growth inhibition) at 200 ppm [2] | percent control (mortality, anti-feedant effect or growth inhibition) at 200 ppm [3] | mortality at 12 ppm [7] | percent effect (mortality or growth inhibition) at 200 ppm [4] | percent effect (mortality or growth inhibition) at 200 ppm [5]

C[C@@H](c1ncnn1-c1cc(C(N)=O)ncn1)N(C)c1ncnc2c(I)cc(Cl)cc12 [Compound P47, 6-[5-[(1S)-1-[(6-chloro-8-iodo-quinazolin-4-yl)-methyl-amino]ethyl]-1,2,4-triazol-1-yl]pyrimidine-4-carboxamide]
≥ 80%: percent effect (mortality or growth inhibition) at 200 ppm [1] | percent control (mortality, anti-feedant effect or growth inhibition) at 200 ppm [2] | percent effect (mortality or growth inhibition) at 50 ppm [6] | percent control (mortality, anti-feedant effect or growth inhibition) at 200 ppm [3] | mortality at 12 ppm [7] | percent effect (mortality or growth inhibition) at 200 ppm [4] | percent effect (mortality or growth inhibition) at 200 ppm [5]

C[C@@H](c1ncnn1-c1cc(C(N)=O)ncn1)N(C)c1ncnc2c(Br)cc(Br)cc12 [Compound P48, 6-[5-[(1S)-1-[(6,8-dibromoquinazolin-4-yl)-methyl-amino]ethyl]-1,2,4-triazol-1-yl]pyrimidine-4-carboxamide]
≥ 80%: percent effect (mortality or growth inhibition) at 200 ppm [1] | percent control (mortality, anti-feedant effect or growth inhibition) at 200 ppm [2] | percent control (mortality, anti-feedant effect or growth inhibition) at 200 ppm [3] | mortality at 12 ppm [7] | percent effect (mortality or growth inhibition) at 200 ppm [4] | percent effect (mortality or growth inhibition) at 200 ppm [5]

C[C@@H](c1ncnn1-c1cc(C(N)=O)ncn1)N(C)c1ncnc2c(Cl)cc(C(F)(F)F)cc12 [Compound P51, 6-[5-[(1S)-1-[[8-chloro-6-(trifluoromethyl)quinazolin-4-yl]-methyl-amino]ethyl]-1,2,4-triazol-1-yl]pyrimidine-4-carboxamide]
≥ 80%: percent effect (mortality or growth inhibition) at 200 ppm [1] | percent control (mortality, anti-feedant effect or growth inhibition) at 200 ppm [2] | percent control (mortality, anti-feedant effect or growth inhibition) at 200 ppm [3] | mortality at 12 ppm [7] | percent effect (mortality or growth inhibition) at 200 ppm [4] | percent effect (mortality or growth inhibition) at 200 ppm [5]

CNC(=O)c1cc(-n2ncnc2[C@H](C)Nc2ncnc3c(S(=O)(=O)C(F)(F)F)cc(Cl)cc23)ncn1 [Compound P60, 6-[5-[(1S)-1-[[6-chloro-8-(trifluoromethylsulfonyl)quinazolin-4-yl]amino]ethyl]-1,2,4-triazol-1-yl]-N-methyl-pyrimidine-4-carboxamide]
≥ 80%: percent effect (mortality or growth inhibition) at 200 ppm [1] | percent control (mortality, anti-feedant effect or growth inhibition) at 200 ppm [2] | percent effect (mortality or growth inhibition) at 50 ppm [6] | percent control (mortality, anti-feedant effect or growth inhibition) at 200 ppm [3] | mortality at 12 ppm [7] | percent effect (mortality or growth inhibition) at 200 ppm [4] | percent effect (mortality or growth inhibition) at 200 ppm [5]

C[C@H](Nc1ncnc2c(C(F)(F)F)cc(Cl)cc12)c1ncnn1-c1cc(C(=O)N(C)CC#N)ncn1 [Compound P62, 6-[5-[(1S)-1-[[6-chloro-8-(trifluoromethyl)quinazolin-4-yl]amino]ethyl]-1,2,4-triazol-1-yl]-N-(cyanomethyl)-N-methyl-pyrimidine-4-carboxamide]
≥ 80%: percent effect (mortality or growth inhibition) at 200 ppm [1] | percent control (mortality, anti-feedant effect or growth inhibition) at 200 ppm [2] | percent effect (mortality or growth inhibition) at 50 ppm [6] | percent control (mortality, anti-feedant effect or growth inhibition) at 200 ppm [3] | mortality at 12 ppm [7] | percent effect (mortality or growth inhibition) at 200 ppm [4]

C[C@H](Nc1ncnc2c(C(F)(F)F)cc(Cl)cc12)c1ncnn1-c1ncc(C(N)=O)cn1 [Compound P68, 2-[5-[(1S)-1-[[6-chloro-8-(trifluoromethyl)quinazolin-4-yl]amino]ethyl]-1,2,4-triazol-1-yl]pyrimidine-5-carboxamide]
≥ 80%: percent effect (mortality or growth inhibition) at 200 ppm [5]

C[C@H](Nc1ncnc2c(Br)cc(Br)cc12)c1ncnn1-c1cnc(C(N)=O)cn1 [Compound P74, 5-[5-[(1S)-1-[(6,8-dibromoquinazolin-4-yl)amino]ethyl]-1,2,4-triazol-1-yl]pyrazine-2-carboxamide]
≥ 80%: percent control (mortality, anti-feedant effect or growth inhibition) at 200 ppm [3] | percent effect (mortality or growth inhibition) at 200 ppm [4] | percent effect (mortality or growth inhibition) at 200 ppm [5]

C[C@H](Nc1ncnc2c(I)cc(Cl)cc12)c1ncnn1-c1cnc(C(N)=O)cn1 [Compound P75, 5-[5-[(1S)-1-[(6-chloro-8-iodo-quinazolin-4-yl)amino]ethyl]-1,2,4-triazol-1-yl]pyrazine-2-carboxamide]
≥ 80%: percent effect (mortality or growth inhibition) at 200 ppm [1] | percent control (mortality, anti-feedant effect or growth inhibition) at 200 ppm [2] | percent control (mortality, anti-feedant effect or growth inhibition) at 200 ppm [3] | mortality at 12 ppm [7] | percent effect (mortality or growth inhibition) at 200 ppm [4] | percent effect (mortality or growth inhibition) at 200 ppm [5]
